ChEMBL document CHEMBL1201862, “PubChem BioAssay data set” (2004)
Several values for one entry are separate records, joined by “and”; a condition that tells them apart may be missing. Identical values can stand only once.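 Interpolation was linear, between the two tested concentrations surrounding the appropriate level; five concentrations were tested over 48 hours in 96-well plates. The concentration for 50% growth inhibition is given as GI50.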 Activity calls are given as the source filed them. Cut-off read from the data, not from the text of the source: active = GI50 up to about 1.1 µM and inactive = higher.

Experiments:
Assay in all cases: growth of human tumour cells (NCI), 48 h
COLO 205 = tested on: COLO 205
DMS-114 = tested on: DMS-114
HOP-62 = tested on: HOP-62
HT-29 = tested on: HT-29
IGROV-1 = tested on: IGROV-1
NCI-H226 = tested on: NCI-H226
OVCAR-5 = tested on: OVCAR-5
OVCAR-8 = tested on: OVCAR-8
SF-295 = tested on: SF-295
SK-MEL-28 = tested on: SK-MEL-28
SK-MEL-5 = tested on: SK-MEL-5
SK-OV-3 = tested on: SK-OV-3
SNB-75 = tested on: SNB-75
TK-10 = tested on: TK-10
U-251 = tested on: U-251
NCI-H522 = tested on: NCI-H522
SK-MEL-2 = tested on: SK-MEL-2
BT-549 = tested on: BT-549
MDA-MB-435 = tested on: MDA-MB-435
MDA-N = tested on: MDA-N

SMILES	GI50 (COLO 205)	GI50 (DMS-114)	GI50 (HOP-62)	GI50 (HT-29)	GI50 (IGROV-1)	GI50 (NCI-H226)	GI50 (OVCAR-5)	GI50 (OVCAR-8)	GI50 (SF-295)	GI50 (SK-MEL-28)	GI50 (SK-MEL-5)	GI50 (SK-OV-3)	GI50 (SNB-75)	GI50 (TK-10)	GI50 (U-251)	GI50 (NCI-H522)	GI50 (SK-MEL-2)	GI50 (BT-549)	GI50 (MDA-MB-435)	GI50 (MDA-N)
Oc1cc(O)c2c(-c3c(O)c(-c4ccc(O)c(O)c4)[o+]c4cc(O)cc(O)c34)c(O)c(-c3ccc(O)c(O)c3)[o+]c2c1	42.5 µM (inactive)	32.7 µM (inactive)	38.9 µM (inactive)	37.6 µM (inactive)	48 µM (inactive)	20.1 µM (inactive)	> 100 µM (inactive)	36.6 µM (inactive)	41.8 µM (inactive)	91.2 µM (inactive)	> 100 µM (inactive)	34.1 µM (inactive)	24 µM (inactive)	61.5 µM (inactive)	30.9 µM (inactive)					
Nc1ccc(C2=N/C(=C\c3cccc(N)c3)C(=O)O2)cc1	> 100 µM (inactive)	> 100 µM (inactive)		> 100 µM (inactive)	> 100 µM (inactive)		> 100 µM (inactive)	> 100 µM (inactive)	> 100 µM (inactive)	> 100 µM (inactive)	> 100 µM (inactive)	> 100 µM (inactive)		> 100 µM (inactive)	> 100 µM (inactive)	> 100 µM (inactive)	> 100 µM (inactive)			
CCOC(=O)C1(Cc2ccc3ccccc3c2)CCCCCN1 (stereo not given)	18.7 µM (inactive)	26.5 µM (inactive)	64.3 µM (inactive)	12.6 µM (inactive)	> 100 µM (inactive)			39.6 µM (inactive)	19 µM (inactive)	23.3 µM (inactive)		32.7 µM (inactive)	2.78 µM (inactive)	54.1 µM (inactive)	47 µM (inactive)					
N#C/C(=C\c1ccc(O)cc1)C(N)=O	> 100 µM (inactive)	> 100 µM (inactive)	> 100 µM (inactive)	> 100 µM (inactive)	> 100 µM (inactive)	> 100 µM (inactive) and 69.7 µM (inactive)	> 100 µM (inactive)	> 100 µM (inactive)	> 100 µM (inactive)	> 100 µM (inactive)	> 100 µM (inactive)	> 100 µM (inactive)		> 100 µM (inactive)	> 100 µM (inactive)		> 100 µM (inactive)			
CC1=C(C)C(=O)c2c(cc3ccccn23)C1=O	20.3 µM (inactive)	12.9 µM (inactive)		18.5 µM (inactive)	24.5 µM (inactive)	26.8 µM (inactive)	45.6 µM (inactive)	22.8 µM (inactive)	17.1 µM (inactive)	19 µM (inactive)	10.4 µM (inactive)	20 µM (inactive)	26.4 µM (inactive)	27 µM (inactive)	14.1 µM (inactive)					
c1ccc([P+](c2ccccc2)(c2ccccc2)C2Sc3ccccc3S2)cc1	16.7 µM (inactive)	12.7 µM (inactive)	23.1 µM (inactive)	23 µM (inactive)	> 100 µM (inactive)	12.5 µM (inactive)	19.7 µM (inactive)	15.1 µM (inactive)	17.4 µM (inactive)	13.6 µM (inactive)	17.7 µM (inactive)	28.8 µM (inactive)	17.8 µM (inactive)	21 µM (inactive)	16 µM (inactive)	14.9 µM (inactive)				
CCOC(=O)c1cn(CC)c2cc3c(cc2c1=O)SCS3	> 100 µM (inactive)	> 100 µM (inactive)	> 100 µM (inactive)	> 100 µM (inactive)	> 100 µM (inactive)		> 100 µM (inactive)	> 100 µM (inactive)	> 100 µM (inactive)	> 100 µM (inactive)	> 100 µM (inactive)	> 100 µM (inactive)	52.2 µM (inactive)	> 100 µM (inactive)	> 100 µM (inactive)	> 100 µM (inactive)	> 100 µM (inactive)			
CCOC(=O)CCC(NC(=O)C(N)Cc1ccc(N(CCCl)CCCl)cc1)C(=O)OCC (stereo not given)	0.735 µM (active)		1.79 µM (inactive)	0.716 µM (active)	1.17 µM (inactive)	6.14 µM (inactive)	2.47 µM (inactive)	0.867 µM (active)	2.88 µM (inactive)	0.719 µM (active)	1.5 µM (inactive)	1.3 µM (inactive)	0.733 µM (active)	1.31 µM (inactive)	1.85 µM (inactive)	0.285 µM (active)	3.01 µM (inactive)	4.66 µM (inactive)	1.49 µM (inactive)	1.64 µM (inactive)
Cc1cn(C2CC(N)C(CN)O2)c(=O)[nH]c1=O (stereo not given)	> 100 µM (inactive)		> 100 µM (inactive)	> 100 µM (inactive)	> 100 µM (inactive)	40.6 µM (inactive)	> 100 µM (inactive)	> 100 µM (inactive)	> 100 µM (inactive)	> 100 µM (inactive)	> 100 µM (inactive)	> 100 µM (inactive)	38.5 µM (inactive)	> 100 µM (inactive)	> 100 µM (inactive)	> 100 µM (inactive)	> 100 µM (inactive)	> 100 µM (inactive)	> 100 µM (inactive)	35.6 µM (inactive)
